Results: patent publication US5444061A, “Anti-cancer compounds” (British Technology Group Limited, priority 1991, dated 1995)

Experiments:
[1] = particularly in relation to the liver and kidneys; cited from earlier work
[2] = test system: human breast, ovarian and liver cancer; details: humans; cited from earlier work
[3] = In vivo stability to cleavage of the central amide linkage of the dipeptide (i.p., mice); set-up: species or system mouse (male C57/DBA2 F1 hybrid); details: 100 mg/kg i.p., 1 hour; for Stability (cleavage of the central amide linkage of the dipeptide): based on dipeptide and cleavage product found in plasma and liver
Experimental: In vivo tests in mice at a dosage of 100 mg/kg with various compounds according to the invention have shown a substantial lack of cleavage of the central amide linkage of the dipeptide as assessed by measurement of the amount of the cleavage product as a percentage of the total of parent compound and cleavage product present in the liver or plasma of a mouse sacrificed 1 hour after intraperitoneal administration of the dipeptide, i.e. cleavage was within the limit of experimental detection which is about 5%. Although a minor degree of cleavage of this amide linkage of the quinazoline is acceptable when it is used in practice, a level of cleavage on administration in vivo of less than 10% is preferred, with no more than about 5% being desirable, especially 2% or 1% or less.
The four compounds were also tested for in vivo stability to cleavage of the central amide linkage of the dipeptide. This test comprised injecting the compound intraperitoneally into male C57/DBA2 (F1 hybrid) mice at a standard dosage rate of 100 mg/kg, sacrificing the animals after 1 hour, removing the plasma, liver and kidneys, homogenising these individually in nine times the volume of 0.1 M Tris HCl at pH 10, precipitating the protein and analysing the product in 0.05 M NaHCO3 by hplc on a Sperisorb C-6 column eluting with acetonitrile/sodium acetate of pH 5.0. UV measurements at 280 and 313 nm were used to detect the dipeptide and the breakdown product of cleavage at the central amide bond of the dipeptide, i.e. the L-glutamic acid derivative or D-glutamic acid derivative. Identification of the parent compound and any breakdown product was effected by Rt comparisons against standard samples of these compounds which have been subjected to the same treatment as the liver, kidney and plasma samples.
The results obtained are shown in the Table, the identification of a compound which is "not cleaved" as compared with a compound which is "cleaved" being made on the basis of the amount of the dipeptide and its cleavage product found in the plasma and the liver.

L1210 cell line = assay: Inhibition of growth of the leukaemia cell line L1210 in cell culture; format: cell-based; details: Mus musculus
Text: The test may be similar to that described in UK Patent Specification No. 2065653B; and […]

MCF-7 cell line = assay: Inhibition of growth of the human breast cancer cell line MCF-7 in cell culture; format: cell-based; details: MCF7, MCF-7 cell culture, read-out: IC50 against the MCF-7 cell line
Text: The test may be similar to that described by Lippman et al (Cancer Res., 1976, 36, 4595).

SMILES | toxicity in humans [1] | activity against human breast, ovarian and liver cancer [2] | Stability (cleavage of the central amide linkage of the dipeptide) [3] | IC50 (L1210 cell line) [nM] | location of the remaining part of the parent dipeptide which was detected [3] | cleavage product in the liver, as a percentage of the total drug administered ([3]; liver, typical experiment) | parent dipeptide present in the liver, as a percentage of the total drug administered ([3]; liver, typical experiment) [%] | cleavage product accompanying the parent dipeptide in the plasma [3] | IC50 (MCF-7 cell line) [nM]
C#CCN(Cc1ccc2nc(N)[nH]c(=O)c2c1)c1ccc(C(=O)N[C@@H](CCC(=O)O)C(=O)O)cc1 [CB3717] | shows symptoms of toxicity in humans, particularly in relation to the liver and kidneys | promising activity against human breast, ovarian and liver cancer | – | – | – | – | – | – | –
C#CCN(Cc1ccc2nc(C)[nH]c(=O)c2c1)c1ccc(C(=O)N[C@H](CCC(=O)N[C@@H](CCC(=O)O)C(=O)O)C(=O)O)cc1 [D-glu-L-glu] | – | – | cleaved | 3400 | – | – | – | – | –
C#CCN(Cc1ccc2nc(C)nc(O)c2c1)c1ccc(C(=O)N[C@@H](CCC(=O)N[C@H](CCC(=O)O)C(=O)O)C(=O)O)cc1 [Example 1, N-p-[N-(3,4-Dihydro-2-methyl-4-oxoquinazolin-6-ylmethyl)-N-(prop-2-ynyl)amino]benzoyl-L-γ-glutamyl-D-glutamic acid] | – | – | not cleaved | 180 | found mostly in the plasma | no cleavage product | 27±2 | no cleavage product | 300
C#CCN(Cc1ccc2nc(C)nc(O)c2c1)c1ccc(C(=O)N[C@H](CCC(=O)N[C@H](CCC(=O)O)C(=O)O)C(=O)O)cc1 [Example 10, N-p-[N-(3,4-dihydro-2-methyl-4-oxoquinazolin-6-ylmethyl)-N-(prop-2-ynyl)amino]benzoyl-D-γ-glutamyl-D-glutamic acid] | – | – | not cleaved | 1300 | – | – | – | – | –
C#CCN(Cc1ccc2nc(C)nc(O)c2c1)c1ccc(C(=O)N[C@@H](CCC(=O)N[C@@H](CCC(=O)O)C(=O)O)C(=O)O)cc1 [L-glu-L-glu] | – | – | cleaved | 100 | found mostly in the plasma | – | 1.6±0.8 | a significant amount of the cleavage product | –
